System: HCI-001 (organoid from a triple-negative breast cancer xenograft)
Assay: CTG-3D luminescence at 96 h relative to day-0 seeding control (ratio to day 0); higher = more growth / less cytotoxicity; PDxO 3D drug screen, 96 h, CTG-3D normalised to day-0 seeding control.
Conditions: 1 µM; days in culture: 327

Row | SMILES | CTG-3D luminescence at 96 h
1 | NC(=O)c1cccc2cn(-c3ccc([C@@H]4CCCNC4)cc3)nc12 [niraparib] | 1.66
2 | Cc1cc(Nc2ncnc3ccc(NC4=NC(C)(C)CO4)cc23)ccc1Oc1ccn2ncnc2c1 [tucatinib] | 1.44
3 | CCN(c1cc(C#CCN2CCOCC2)cc(C(=O)NCc2c(C)cc(C)[nH]c2=O)c1C)[C@H]1CC[C@H](N(C)CCOC)CC1 | 1.79

Same assay, conditions: 1 µM; days in culture: 346

Row | SMILES | CTG-3D luminescence at 96 h
4 | NC1(C(=O)N[C@@H](CCO)c2ccc(Cl)cc2)CCN(c2nc[nH]c3nccc2-3)CC1 [capivasertib] | 0.937
5 | CC(C)n1nc(-c2ccc3oc(N)nc3c2)c2c(N)ncnc21 [sapanisertib] | 0.577
6 | O=C(c1ccc(F)c(F)c1Nc1ccc(I)cc1F)N1CC(O)([C@@H]2CCCCN2)C1 [cobimetinib] | 1.13
7 | C[C@H](NC(=O)CCC(F)(F)F)C(=O)N[C@@H]1C(=O)N(CCO)c2ncccc2-c2ccccc21 [crenigacestat] | 1.32
8 | Cc1cc(Nc2ncc(Cl)c(Nc3ccccc3S(=O)(=O)C(C)C)n2)c(OC(C)C)cc1C1CCNCC1 [ceritinib] | 1.19
9 | CS(=O)(=O)c1ccc(C(=O)Nc2ccc(Cl)c(-c3ccccn3)c2)c(Cl)c1 [vismodegib] | 1.47
10 | NC(=O)c1cccc2cn(-c3ccc([C@@H]4CCCNC4)cc3)nc12 [niraparib] | 1.51
11 | Cc1cc(Nc2ncnc3ccc(NC4=NC(C)(C)CO4)cc23)ccc1Oc1ccn2ncnc2c1 [tucatinib] | 1.24
12 | CCN(c1cc(C#CCN2CCOCC2)cc(C(=O)NCc2c(C)cc(C)[nH]c2=O)c1C)[C@H]1CC[C@H](N(C)CCOC)CC1 | 1.5

Same assay, conditions: 1 µM; days in culture: 364

Row | SMILES | CTG-3D luminescence at 96 h
13 | NC1(C(=O)N[C@@H](CCO)c2ccc(Cl)cc2)CCN(c2nc[nH]c3nccc2-3)CC1 [capivasertib] | 0.847
14 | CC(C)n1nc(-c2ccc3oc(N)nc3c2)c2c(N)ncnc21 [sapanisertib] | 0.464
15 | O=C(c1ccc(F)c(F)c1Nc1ccc(I)cc1F)N1CC(O)([C@@H]2CCCCN2)C1 [cobimetinib] | 0.9
16 | C[C@H](NC(=O)CCC(F)(F)F)C(=O)N[C@@H]1C(=O)N(CCO)c2ncccc2-c2ccccc21 [crenigacestat] | 1.1
17 | Cc1cc(Nc2ncc(Cl)c(Nc3ccccc3S(=O)(=O)C(C)C)n2)c(OC(C)C)cc1C1CCNCC1 [ceritinib] | 1.13
18 | CS(=O)(=O)c1ccc(C(=O)Nc2ccc(Cl)c(-c3ccccn3)c2)c(Cl)c1 [vismodegib] | 1.47
19 | NC(=O)c1cccc2cn(-c3ccc([C@@H]4CCCNC4)cc3)nc12 [niraparib] | 1.33
20 | Cc1cc(Nc2ncnc3ccc(NC4=NC(C)(C)CO4)cc23)ccc1Oc1ccn2ncnc2c1 [tucatinib] | 0.895
21 | CCN(c1cc(C#CCN2CCOCC2)cc(C(=O)NCc2c(C)cc(C)[nH]c2=O)c1C)[C@H]1CC[C@H](N(C)CCOC)CC1 | 1.17

Same assay, conditions: 10 µM; days in culture: 240

Row | SMILES | CTG-3D luminescence at 96 h
22 | NC1(C(=O)N[C@@H](CCO)c2ccc(Cl)cc2)CCN(c2nc[nH]c3nccc2-3)CC1 [capivasertib] | 0.407
23 | CC(C)n1nc(-c2ccc3oc(N)nc3c2)c2c(N)ncnc21 [sapanisertib] | 0.311
24 | O=C(c1ccc(F)c(F)c1Nc1ccc(I)cc1F)N1CC(O)([C@@H]2CCCCN2)C1 [cobimetinib] | 0.812
25 | C[C@H](NC(=O)CCC(F)(F)F)C(=O)N[C@@H]1C(=O)N(CCO)c2ncccc2-c2ccccc21 [crenigacestat] | 1.2
26 | Cc1cc(Nc2ncc(Cl)c(Nc3ccccc3S(=O)(=O)C(C)C)n2)c(OC(C)C)cc1C1CCNCC1 [ceritinib] | 0.121
27 | CS(=O)(=O)c1ccc(C(=O)Nc2ccc(Cl)c(-c3ccccn3)c2)c(Cl)c1 [vismodegib] | 1.19
28 | NC(=O)c1cccc2cn(-c3ccc([C@@H]4CCCNC4)cc3)nc12 [niraparib] | 1.03
29 | Cc1cc(Nc2ncnc3ccc(NC4=NC(C)(C)CO4)cc23)ccc1Oc1ccn2ncnc2c1 [tucatinib] | 1.02
30 | CCN(c1cc(C#CCN2CCOCC2)cc(C(=O)NCc2c(C)cc(C)[nH]c2=O)c1C)[C@H]1CC[C@H](N(C)CCOC)CC1 | 1.35

Same assay, conditions: 10 µM; days in culture: 260

Row | SMILES | CTG-3D luminescence at 96 h
31 | NC1(C(=O)N[C@@H](CCO)c2ccc(Cl)cc2)CCN(c2nc[nH]c3nccc2-3)CC1 [capivasertib] | 0.532
32 | CC(C)n1nc(-c2ccc3oc(N)nc3c2)c2c(N)ncnc21 [sapanisertib] | 0.468
33 | O=C(c1ccc(F)c(F)c1Nc1ccc(I)cc1F)N1CC(O)([C@@H]2CCCCN2)C1 [cobimetinib] | 1.5
34 | C[C@H](NC(=O)CCC(F)(F)F)C(=O)N[C@@H]1C(=O)N(CCO)c2ncccc2-c2ccccc21 [crenigacestat] | 1.84
35 | Cc1cc(Nc2ncc(Cl)c(Nc3ccccc3S(=O)(=O)C(C)C)n2)c(OC(C)C)cc1C1CCNCC1 [ceritinib] | 0.018
36 | CS(=O)(=O)c1ccc(C(=O)Nc2ccc(Cl)c(-c3ccccn3)c2)c(Cl)c1 [vismodegib] | 1.91
37 | NC(=O)c1cccc2cn(-c3ccc([C@@H]4CCCNC4)cc3)nc12 [niraparib] | 1.92
38 | Cc1cc(Nc2ncnc3ccc(NC4=NC(C)(C)CO4)cc23)ccc1Oc1ccn2ncnc2c1 [tucatinib] | 1.46
39 | CCN(c1cc(C#CCN2CCOCC2)cc(C(=O)NCc2c(C)cc(C)[nH]c2=O)c1C)[C@H]1CC[C@H](N(C)CCOC)CC1 | 1.89

Same assay, conditions: 10 µM; days in culture: 269

Row | SMILES | CTG-3D luminescence at 96 h
40 | NC1(C(=O)N[C@@H](CCO)c2ccc(Cl)cc2)CCN(c2nc[nH]c3nccc2-3)CC1 [capivasertib] | 0.758
41 | CC(C)n1nc(-c2ccc3oc(N)nc3c2)c2c(N)ncnc21 [sapanisertib] | 0.643
42 | O=C(c1ccc(F)c(F)c1Nc1ccc(I)cc1F)N1CC(O)([C@@H]2CCCCN2)C1 [cobimetinib] | 1.83
43 | C[C@H](NC(=O)CCC(F)(F)F)C(=O)N[C@@H]1C(=O)N(CCO)c2ncccc2-c2ccccc21 [crenigacestat] | 2.1
44 | Cc1cc(Nc2ncc(Cl)c(Nc3ccccc3S(=O)(=O)C(C)C)n2)c(OC(C)C)cc1C1CCNCC1 [ceritinib] | -0.0266
45 | CS(=O)(=O)c1ccc(C(=O)Nc2ccc(Cl)c(-c3ccccn3)c2)c(Cl)c1 [vismodegib] | 1.83
46 | NC(=O)c1cccc2cn(-c3ccc([C@@H]4CCCNC4)cc3)nc12 [niraparib] | 1.23
47 | Cc1cc(Nc2ncnc3ccc(NC4=NC(C)(C)CO4)cc23)ccc1Oc1ccn2ncnc2c1 [tucatinib] | 1.67
48 | CCN(c1cc(C#CCN2CCOCC2)cc(C(=O)NCc2c(C)cc(C)[nH]c2=O)c1C)[C@H]1CC[C@H](N(C)CCOC)CC1 | 1.91

Same assay, conditions: 10 µM; days in culture: 327

Row | SMILES | CTG-3D luminescence at 96 h
49 | NC1(C(=O)N[C@@H](CCO)c2ccc(Cl)cc2)CCN(c2nc[nH]c3nccc2-3)CC1 [capivasertib] | 0.552
50 | CC(C)n1nc(-c2ccc3oc(N)nc3c2)c2c(N)ncnc21 [sapanisertib] | 0.319
51 | O=C(c1ccc(F)c(F)c1Nc1ccc(I)cc1F)N1CC(O)([C@@H]2CCCCN2)C1 [cobimetinib] | 1.04
52 | C[C@H](NC(=O)CCC(F)(F)F)C(=O)N[C@@H]1C(=O)N(CCO)c2ncccc2-c2ccccc21 [crenigacestat] | 1.06
53 | Cc1cc(Nc2ncc(Cl)c(Nc3ccccc3S(=O)(=O)C(C)C)n2)c(OC(C)C)cc1C1CCNCC1 [ceritinib] | 0.164
54 | CS(=O)(=O)c1ccc(C(=O)Nc2ccc(Cl)c(-c3ccccn3)c2)c(Cl)c1 [vismodegib] | 1.2
55 | NC(=O)c1cccc2cn(-c3ccc([C@@H]4CCCNC4)cc3)nc12 [niraparib] | 1.28
56 | Cc1cc(Nc2ncnc3ccc(NC4=NC(C)(C)CO4)cc23)ccc1Oc1ccn2ncnc2c1 [tucatinib] | 1.16
57 | CCN(c1cc(C#CCN2CCOCC2)cc(C(=O)NCc2c(C)cc(C)[nH]c2=O)c1C)[C@H]1CC[C@H](N(C)CCOC)CC1 | 1.53

Same assay, conditions: 10 µM; days in culture: 346

Row | SMILES | CTG-3D luminescence at 96 h
58 | NC1(C(=O)N[C@@H](CCO)c2ccc(Cl)cc2)CCN(c2nc[nH]c3nccc2-3)CC1 [capivasertib] | 0.678
59 | CC(C)n1nc(-c2ccc3oc(N)nc3c2)c2c(N)ncnc21 [sapanisertib] | 0.315
60 | O=C(c1ccc(F)c(F)c1Nc1ccc(I)cc1F)N1CC(O)([C@@H]2CCCCN2)C1 [cobimetinib] | 1.22
61 | C[C@H](NC(=O)CCC(F)(F)F)C(=O)N[C@@H]1C(=O)N(CCO)c2ncccc2-c2ccccc21 [crenigacestat] | 1.35
62 | Cc1cc(Nc2ncc(Cl)c(Nc3ccccc3S(=O)(=O)C(C)C)n2)c(OC(C)C)cc1C1CCNCC1 [ceritinib] | 0.45
63 | CS(=O)(=O)c1ccc(C(=O)Nc2ccc(Cl)c(-c3ccccn3)c2)c(Cl)c1 [vismodegib] | 1.65
64 | NC(=O)c1cccc2cn(-c3ccc([C@@H]4CCCNC4)cc3)nc12 [niraparib] | 1.1
65 | Cc1cc(Nc2ncnc3ccc(NC4=NC(C)(C)CO4)cc23)ccc1Oc1ccn2ncnc2c1 [tucatinib] | 1.25
66 | CCN(c1cc(C#CCN2CCOCC2)cc(C(=O)NCc2c(C)cc(C)[nH]c2=O)c1C)[C@H]1CC[C@H](N(C)CCOC)CC1 | 1.62

Same assay, conditions: 10 µM; days in culture: 364

Row | SMILES | CTG-3D luminescence at 96 h
67 | NC1(C(=O)N[C@@H](CCO)c2ccc(Cl)cc2)CCN(c2nc[nH]c3nccc2-3)CC1 [capivasertib] | 0.605
68 | CC(C)n1nc(-c2ccc3oc(N)nc3c2)c2c(N)ncnc21 [sapanisertib] | 0.318
69 | O=C(c1ccc(F)c(F)c1Nc1ccc(I)cc1F)N1CC(O)([C@@H]2CCCCN2)C1 [cobimetinib] | 0.905
